From PMC5405074, “Receptor-Mediated Melanoma Targeting with Radiolabeled α-Melanocyte-Stimulating Hormone: Relevance of the Net Charge of the Ligand” (Frontiers in Endocrinology, 2017)
Read-outs that look alike come from different tables or passages of the source. Marks after values point to notes of the source that are not given here. Non-standard residues stand in square brackets, D forms with d. Residues, ends and D or L forms follow the SMILES beside them. *: point of attachment. DOTA = O=C(O)CN1CCN(CC(=O)O)CCN(CC(=O)*)CCN(CC(=O)O)CC1; Nle = CCCC[C@H](N)C(=O)O

Experiments:
MC1R (B16-F1 cells) = molecular target: T1, MC1R (B16-F1 cells) (Mus musculus, UniProt Q01727); assay: Competition binding assay with [^125I]-NDP-MSH, mouse B16-F1 melanoma cells; conditions: B16-F1 cells
T1 construct: endogenous in cells; host or cells: mouse B16-F1 melanoma cells
Method: (§1) Triplicates of 100-µL volumes of B16-F1 or HBL cell suspensions adjusted to 4 × 10^6/mL were incubated in 96-well U-bottom microplates (Falcon 3077). The binding medium consisted of MEM with Earle’s salts, 0.2% BSA, and 0.3 mM 1,10-phenanthroline. This binding medium was called mouse binding medium (MBM). Triplicates of competitor peptide solution (50 µL) yielding final concentrations ranging from 1 × 10^−6 to 1 × 10^−12 M were added. [^125I]NDP-MSH (50,000 cpm) in 50 µL was finally added to each well. The plates were incubated at 15°C for 3 h for B16-F1 cells and at 37°C for 2 h for HBL cells. The incubation was stopped by covering the plates with ice for 10 min. A cell harvester was used to collect cell-bound radioactivity on filters (Packard Unifilter-96 GF/B). The collected radioactivity was counted on a TopCount scintillation counter (Packard) after addition of 50 µL Microscint-20 scintillation cocktail (Perkin Elmer). The IC50 values were calculated with the Prism 6 software (GraphPad Software Inc., San Diego CA, USA).
(§2) The binding affinity of the peptides to MC1R was assessed by competition binding assays using [^125I]-NDP-MSH as radioligand and both murine B16-F1 and human HBL cells.

B16-F1 cells = assay: In situ melanin assay in B16-F1 cells; assay type: cell-based, mouse; conditions: for Reduction of biological activity compared to DOTA-NAP-amide: melanin assay
Method: The biological activity of the α-MSH derivatives was assessed with an in situ melanin assay ([40]). Briefly, B16-F1 cells (2,500 cells per well in 100 µL) were distributed into 96-well flat-bottom cell culture plates. MEM without phenol red, supplemented with 10% heat-inactivated fetal calf serum, 2 mM L-glutamine, 0.31 mmol/L L-tyrosine, 1% non-essential amino acids, 1% vitamin solution, 50 IU/mL penicillin, and 50 µg/mL streptomycin, was used as culture medium. After overnight incubation at cell culture conditions mentioned above, concentrations of α-MSH derivatives ranging from 1 × 10^−8 to 1 × 10^−12 in 100-µL volumes were added (in threefold dilution steps), and the incubation was continued for an additional 72 h. Melanin production was quantified by determining the absorbance at 310 nm in a microplate reader.

[1] = Biodistribution of ^111In-labeled peptides in B16-F1 melanoma-bearing mice; assay type: in vivo, mouse (B6D2F1); conditions: female, iv, total radioactivity, ^111In-labeled peptide, 185 kBq i.v., mean ± SEM of three experiments, n = 5 animals each
How it was run: (§3)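 B16-F1 cells (about 5 × 10^5) grown s.c. in female B6D2F1 mice; 7 days later 185 kBq ^111In-labeled peptide injected i.v. Tissues collected at 4, 24 and 48 h and γ-counted, uptake given as %ID/g (mean ± SEM); non-specific uptake from co-injection of 50 µg α-MSH. Urine metabolites analysed by RP-HPLC/γ-detection.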

[2] = tested on: B16-F1 tumor-bearing mice; assay: as above; assay type: in vivo, mouse (B6D2F1); conditions: in vivo
How it was run: as §3

MC1R (HBL cells) = molecular target: T2, MC1R (HBL cells) (Homo sapiens, UniProt Q01726); assay: Competition binding assay with [^125I]-NDP-MSH, human HBL melanoma cells; conditions: HBL cells
T2 construct: endogenous in cells; host or cells: human HBL melanoma cell line
Method: as §1, §2

[3] = B6D2F1 (C57BL/6 × DBA/2F1 hybrids), mouse, blood, read-out: Blood uptake
[4] = B6D2F1 (C57BL/6 × DBA/2F1 hybrids), mouse, muscle, read-out: Muscle uptake
[5] = B6D2F1 (C57BL/6 × DBA/2F1 hybrids), mouse, skin, read-out: Skin uptake
[6] = B6D2F1 (C57BL/6 × DBA/2F1 hybrids), mouse, tumor, read-out: Tumor uptake
[7] = B6D2F1, mouse, bone, read-out: Bone uptake
[8] = B6D2F1, mouse, heart, read-out: Heart uptake
[9] = B6D2F1, mouse, kidney, read-out: Kidney uptake
[10] = B6D2F1, mouse, liver, read-out: Liver uptake
[11] = B6D2F1, mouse, lung, read-out: Lung uptake
[12] = B6D2F1, mouse, pancreas, read-out: Pancreas uptake
[13] = B6D2F1, mouse, small intestines, read-out: Small intestines uptake
[14] = B6D2F1, mouse, spleen, read-out: Spleen uptake
[15] = B6D2F1, mouse, stomach, read-out: Stomach uptake

T1 sequence (Q01727 whole entry): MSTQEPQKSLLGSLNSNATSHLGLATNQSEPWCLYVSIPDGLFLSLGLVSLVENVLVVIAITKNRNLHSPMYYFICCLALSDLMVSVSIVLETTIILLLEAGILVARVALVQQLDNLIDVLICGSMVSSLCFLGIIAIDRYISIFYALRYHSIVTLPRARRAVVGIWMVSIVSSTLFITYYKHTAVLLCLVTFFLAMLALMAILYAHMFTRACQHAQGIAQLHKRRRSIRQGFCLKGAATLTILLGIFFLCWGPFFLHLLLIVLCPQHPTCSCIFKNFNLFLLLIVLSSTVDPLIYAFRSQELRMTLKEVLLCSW
T2 sequence (Q01726 whole entry): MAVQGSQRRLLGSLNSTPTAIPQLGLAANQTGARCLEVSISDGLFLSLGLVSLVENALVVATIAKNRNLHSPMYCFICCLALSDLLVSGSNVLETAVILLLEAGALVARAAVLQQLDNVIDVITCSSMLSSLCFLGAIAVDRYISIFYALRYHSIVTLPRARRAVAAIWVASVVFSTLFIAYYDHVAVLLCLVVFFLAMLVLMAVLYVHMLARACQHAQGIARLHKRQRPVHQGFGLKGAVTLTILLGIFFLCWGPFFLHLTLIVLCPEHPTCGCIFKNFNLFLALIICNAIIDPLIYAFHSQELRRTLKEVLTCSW

Question: With `CCCC[C@H](NC(C)=O)C(=O)N[C@@H](CC(=O)O)C(=O)N[C@@H](Cc1c[nH]cn1)C(=O)N[C@H](Cc1ccccc1)C(=O)N[C@@H](CCCNC(=N)N)C(=O)N[C@@H](Cc1c[nH]c2ccccc12)C(=O)NCC(=O)N[C@@H](CCCCNC(=O)CN1CCN(CC(=O)O)CCN(CC(=O)O)CCN(CC(=O)O)CC1)C(=O)N[C@H](CC(=O)O)C(=O)N[C@H](CC(=O)O)C(=O)O` [DOTA-NAP-D-Asp-D-Asp, Ac-Nle-Asp-His-D-Phe-Arg-Trp-Gly-Lys(DOTA)-D-Asp-D-Asp-OH] (Ac-[Nle]DH[dF]RWGK(DOTA)[dD][dD]-OH) as the molecule, how does the “Reduction of MC1R affinity compared to DOTA-NAP-amide” value (MC1R (B16-F1 cells)) read?
Answer: Its value is ~ 10 fold.

Question: What about the “Reduction of biological activity compared to DOTA-NAP-amide” value (B16-F1 cells) of the same molecule?
Answer: The value was greater than 10 fold.

Question: What about the “Reduction of biological activity compared to DOTA-NAP-amide” value (B16-F1 cells; listed as DOTA-NAP by D-Asp-D-Asp) of the same molecule?
Answer: The value was “around 11 fold”.

Question: And the “Biological activity rEC50 [α-MSH = 1]” value (B16-F1 cells; relative concentration vs. α-MSH (=1) inducing half-maximal melanin production by B16-F1 cells, 72 h, absorbance 310 nm, n = 3–13, ^c = P < 0.05 vs. DOTA-NAP-amide)?
Answer: The value was 7.66 ± 0.33^c.

Question: What about the tissue uptake at 4 h [1, 3] of the same molecule?
Answer: Its tissue uptake at 4 h is 0.01 %ID/g.

Question: What about the tissue uptake at 24 h [1, 3] of the same molecule?
Answer: Its tissue uptake at 24 h is 0.01 %ID/g.

Question: What about the tissue uptake at 48 h [1, 3] of the same molecule?
Answer: The tissue uptake at 48 h was 0.01 %ID/g.

Question: And the tissue uptake at 48 h ([1]; B6D2F1 (C57BL/6 × DBA/2F1 hybrids), mouse, bone, read-out: Bone uptake)?
Answer: The tissue uptake at 48 h was 0.07 ± 0.01 %ID/g.

Question: And the tissue uptake at 4 h [1, 4]?
Answer: The tissue uptake at 4 h was 0.02 %ID/g.

Question: And the tissue uptake at 24 h [1, 4]?
Answer: Its tissue uptake at 24 h is 0.02 %ID/g.

Question: And the tissue uptake at 48 h [1, 4]?
Answer: The tissue uptake at 48 h was 0.03 %ID/g.

Question: And the tissue uptake at 4 h [1, 5]?
Answer: The tissue uptake at 4 h was 0.06 ± 0.01 %ID/g.

Question: What about the tissue uptake at 24 h [1, 5] of the same molecule?
Answer: The tissue uptake at 24 h was 0.06 %ID/g.

Question: And the tissue uptake at 48 h [1, 5]?
Answer: Its tissue uptake at 48 h is 0.04 %ID/g.

Question: And the tissue uptake at 24 h [1, 6]?
Answer: The tissue uptake at 24 h was 0.63 ± 0.03 %ID/g.

Question: What about the tissue uptake at 48 h [1, 6] of the same molecule?
Answer: The tissue uptake at 48 h was 0.23 ± 0.02 %ID/g.

Question: And the tissue uptake at 4 h [1, 7]?
Answer: The tissue uptake at 4 h was 0.07 ± 0.01 %ID/g.

Question: What about the tissue uptake at 24 h [1, 7] of the same molecule?
Answer: Its tissue uptake at 24 h is 0.06 ± 0.01 %ID/g.

Question: And the tissue uptake at 4 h [1, 8]?
Answer: The tissue uptake at 4 h was 0.03 %ID/g.

Question: What about the tissue uptake at 24 h [1, 8] of the same molecule?
Answer: Its tissue uptake at 24 h is 0.03 %ID/g.

Question: And the tissue uptake at 48 h [1, 8]?
Answer: Its tissue uptake at 48 h is 0.03 %ID/g.

Question: And the tissue uptake at 24 h [1, 9]?
Answer: Its tissue uptake at 24 h is 4.09 ± 0.16 %ID/g.

Question: What about the tissue uptake at 48 h [1, 9] of the same molecule?
Answer: The tissue uptake at 48 h was 2.02 ± 0.08 %ID/g.

Question: And the tissue uptake at 4 h [1, 10]?
Answer: Its tissue uptake at 4 h is 0.1 %ID/g.

Question: What about the tissue uptake at 24 h [1, 10] of the same molecule?
Answer: Its tissue uptake at 24 h is 0.09 %ID/g.

Question: What about the tissue uptake at 48 h [1, 10] of the same molecule?
Answer: Its tissue uptake at 48 h is 0.07 %ID/g.

Question: And the tissue uptake at 4 h [1, 11]?
Answer: Its tissue uptake at 4 h is 0.06 %ID/g.

Question: And the tissue uptake at 24 h [1, 11]?
Answer: Its tissue uptake at 24 h is 0.04 %ID/g.

Question: And the tissue uptake at 48 h [1, 11]?
Answer: The tissue uptake at 48 h was 0.03 %ID/g.

Question: And the tissue uptake at 4 h [1, 12]?
Answer: Its tissue uptake at 4 h is 0.03 %ID/g.

Question: What about the tissue uptake at 24 h [1, 12] of the same molecule?
Answer: Its tissue uptake at 24 h is 0.02 %ID/g.

Question: And the tissue uptake at 48 h [1, 12]?
Answer: The tissue uptake at 48 h was 0.03 %ID/g.

Question: What about the tissue uptake at 4 h [1, 13] of the same molecule?
Answer: The tissue uptake at 4 h was 0.05 ± 0.01 %ID/g.

Question: What about the tissue uptake at 24 h [1, 13] of the same molecule?
Answer: Its tissue uptake at 24 h is 0.04 ± 0.01 %ID/g.

Question: And the tissue uptake at 48 h [1, 13]?
Answer: Its tissue uptake at 48 h is 0.03 %ID/g.

Question: What about the tissue uptake at 4 h [1, 14] of the same molecule?
Answer: Its tissue uptake at 4 h is 0.07 %ID/g.

Question: And the tissue uptake at 24 h [1, 14]?
Answer: Its tissue uptake at 24 h is 0.07 %ID/g.

Question: And the tissue uptake at 48 h [1, 14]?
Answer: The tissue uptake at 48 h was 0.07 %ID/g.

Question: And the tissue uptake at 4 h [1, 15]?
Answer: Its tissue uptake at 4 h is 0.11 %ID/g.

Question: What about the tissue uptake at 24 h [1, 15] of the same molecule?
Answer: The tissue uptake at 24 h was 0.03 %ID/g.

Question: And the tissue uptake at 48 h [1, 15]?
Answer: The tissue uptake at 48 h was 0.02 %ID/g.

Question: And the “Kidney uptake/retention compared with reference (in words)” value [2]?
Answer: The value was “markedly increased”.

Question: And the “Tumor uptake lower than that of reference” value ([2]; melanoma tumors)?
Answer: Its value is ~ 4 fold.

Question: And the “Reduction of MC1R affinity compared to DOTA-NAP-amide” value (MC1R (HBL cells))?
Answer: Its value is ~ 10 fold.
